Test results reported in patent US12590091B2, “1H-pyrrolo[3,2-C]pyridine and 1H-pyrrolo[2,3-C]pyridine derivatives as TLR9 inhibitors for the treatment of fibrosis” (BRISTOL-MYERS SQUIBB COMPANY, priority 2020, dated 2026).

Experiments:
[1] = target: T1, human TLR7 (Homo sapiens, UniProt Q9NYK1); assay: TLR7 inhibition reporter assay (HEK-Blue cells, SEAP reporter); type: cell-based; conditions: HEK-Blue cells overexpressing human TLR7, stimulated with gardiquimod 7.5 μM, 22 hour incubation
T1 construct: host or cells: HEK-Blue cells
T1 sequence (Q9NYK1 27-1049): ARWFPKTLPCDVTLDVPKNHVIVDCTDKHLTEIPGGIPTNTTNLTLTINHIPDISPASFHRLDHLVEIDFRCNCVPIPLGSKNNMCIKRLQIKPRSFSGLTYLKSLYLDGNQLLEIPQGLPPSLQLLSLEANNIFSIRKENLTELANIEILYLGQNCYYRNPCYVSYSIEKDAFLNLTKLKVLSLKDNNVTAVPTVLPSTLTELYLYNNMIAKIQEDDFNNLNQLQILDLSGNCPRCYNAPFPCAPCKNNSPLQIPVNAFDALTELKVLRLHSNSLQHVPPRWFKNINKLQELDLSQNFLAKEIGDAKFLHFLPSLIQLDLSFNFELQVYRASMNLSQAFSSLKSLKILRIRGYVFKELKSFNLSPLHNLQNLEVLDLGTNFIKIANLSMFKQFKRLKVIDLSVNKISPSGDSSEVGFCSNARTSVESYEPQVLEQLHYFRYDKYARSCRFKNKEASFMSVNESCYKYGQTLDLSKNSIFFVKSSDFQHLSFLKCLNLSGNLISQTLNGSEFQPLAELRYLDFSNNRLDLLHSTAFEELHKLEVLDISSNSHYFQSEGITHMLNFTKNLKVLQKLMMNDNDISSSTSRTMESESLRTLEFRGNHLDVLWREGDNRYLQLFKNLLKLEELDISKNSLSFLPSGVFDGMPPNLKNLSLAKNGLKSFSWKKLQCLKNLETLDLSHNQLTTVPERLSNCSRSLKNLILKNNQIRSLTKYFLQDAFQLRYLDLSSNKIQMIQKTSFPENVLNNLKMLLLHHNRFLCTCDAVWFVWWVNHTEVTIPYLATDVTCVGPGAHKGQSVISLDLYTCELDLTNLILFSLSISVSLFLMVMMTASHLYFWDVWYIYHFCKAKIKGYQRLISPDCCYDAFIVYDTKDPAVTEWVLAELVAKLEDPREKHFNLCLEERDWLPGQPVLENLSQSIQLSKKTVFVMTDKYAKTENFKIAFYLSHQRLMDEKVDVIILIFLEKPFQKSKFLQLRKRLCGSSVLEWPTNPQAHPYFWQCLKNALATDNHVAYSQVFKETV
Protocol: (§1) TLR7/8/9 Inhibition Reporter Assays
(§2) HEK-Blue™-cells (Invivogen) overexpressing human TLR7, TLR8 or TLR9 receptors were used for screening inhibitors of these receptors using an inducible SEAP (secreted embryonic alkaline phosphatase) reporter gene under the control of the IFN-β minimal promoter fused to five NF-κB and AP-1-binding sites. Briefly, cells are seeded into Greiner 384 well plates (15000 cells per well for TLR7, 20,000 for TLR8 and 25,000 for TLR9) and then treated with test compounds in DMSO to yield a final dose response concentration range of 0.05 nM-50 μM. After a 30 minute compound pre-treatment at room temperature, the cells are then stimulated with a TLR7 ligand (gardiquimod at a final concentration of 7.5 μM), TLR8 ligand (R848 at a final concentration of 15.9 μM) or TLR9 ligand (ODN2006 at a final concentration of 5 nM) to activate NF-κB and AP-1 which induce the production of SEAP. After a 22 hour incubation at 37° C., 5% CO2, SEAP levels are determined with the addition of HEK-Blue™ Detection reagent (Invivogen), a cell culture medium that allows for detection of SEAP, according to manufacturer's specifications. The percent inhibition is determined as the % reduction in the HEK-Blue signal present in wells treated with agonist plus DMSO alone compared to wells treated with a known inhibitor.

[2] = target: T2, human TLR8 (Homo sapiens, UniProt Q9NR97); assay: TLR8 inhibition reporter assay (HEK-Blue cells, SEAP reporter); type: cell-based; conditions: HEK-Blue cells overexpressing human TLR8, stimulated with R848 15.9 μM, 22 hour incubation
T2 construct: host or cells: HEK-Blue cells
T2 sequence (Q9NR97 27-1041): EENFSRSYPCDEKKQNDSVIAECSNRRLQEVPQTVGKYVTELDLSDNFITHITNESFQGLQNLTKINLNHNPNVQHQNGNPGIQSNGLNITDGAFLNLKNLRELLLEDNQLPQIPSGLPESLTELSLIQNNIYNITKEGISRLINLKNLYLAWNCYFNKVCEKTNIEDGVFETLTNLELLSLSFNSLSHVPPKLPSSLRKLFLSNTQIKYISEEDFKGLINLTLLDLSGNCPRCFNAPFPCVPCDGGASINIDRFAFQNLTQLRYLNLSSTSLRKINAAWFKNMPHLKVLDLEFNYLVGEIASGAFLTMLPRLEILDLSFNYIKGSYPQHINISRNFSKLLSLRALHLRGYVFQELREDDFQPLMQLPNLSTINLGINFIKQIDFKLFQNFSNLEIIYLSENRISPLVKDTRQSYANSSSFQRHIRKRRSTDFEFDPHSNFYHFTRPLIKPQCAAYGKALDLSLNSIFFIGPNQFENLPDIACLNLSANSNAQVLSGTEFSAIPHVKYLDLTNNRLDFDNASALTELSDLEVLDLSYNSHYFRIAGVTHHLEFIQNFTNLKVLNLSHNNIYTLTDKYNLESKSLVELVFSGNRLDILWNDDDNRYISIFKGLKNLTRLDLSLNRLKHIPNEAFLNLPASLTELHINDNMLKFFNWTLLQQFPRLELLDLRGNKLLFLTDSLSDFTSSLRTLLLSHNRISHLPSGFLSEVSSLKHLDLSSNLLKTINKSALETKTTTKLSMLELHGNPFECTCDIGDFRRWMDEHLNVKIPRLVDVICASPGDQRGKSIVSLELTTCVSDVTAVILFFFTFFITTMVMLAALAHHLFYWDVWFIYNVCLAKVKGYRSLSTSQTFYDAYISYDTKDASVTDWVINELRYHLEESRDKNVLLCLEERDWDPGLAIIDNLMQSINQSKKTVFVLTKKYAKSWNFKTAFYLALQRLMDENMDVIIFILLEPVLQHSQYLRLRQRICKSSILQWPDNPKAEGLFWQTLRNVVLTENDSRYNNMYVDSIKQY
Protocol: as §1, §2

IC50 [1] | IC50 [2] | SMILES
5.7 µM | 47.9 µM | COc1ccc(-c2c(C)[nH]c3cnc(C4CCN(C(=O)CN5CCCCC5)CC4)cc23)cc1OC [Example 16, 1-(4-(3-(3,4-dimethoxyphenyl)-2-methyl-1H-pyrrolo[2,3-c]pyridin-5-yl)piperidin-1-yl)-2-(piperidin-1-yl)ethan-1-one]
2.3 µM | > 50 µM | COc1ccc(-c2c(C)n(C)c3cnc(C4CCN(C5CCN(CC(C)C)CC5)CC4)cc23)cc1OC [Example 17, 3-(3,4-dimethoxyphenyl)-5-(1′-isobutyl-[1,4′-bipiperidin]-4-yl)-1,2-dimethyl-1H-pyrrolo[2,3-c]pyridine]
13.6 µM | > 50 µM | COc1ccc(-c2c(C)n(C)c3cnc(C4CCN(C5CCN(C(=O)C(C)C)CC5)CC4)cc23)cc1OC [Example 18, 1-(4-(3-(3,4-dimethoxyphenyl)-1,2-dimethyl-1H-pyrrolo[2,3-c]pyridin-5-yl)-[1,4′-bipiperidin]-1′-yl)-2-methylpropan-1-one]
5.2 µM | > 50 µM | COc1ccc(-c2c(C)n(C)c3cnc(C4CCN(C5CCN(C(=O)c6ccccc6)CC5)CC4)cc23)cc1OC [Example 19, (4-(3-(3,4-dimethoxyphenyl)-1,2-dimethyl-1H-pyrrolo[2,3-c]pyridin-5-yl)-[1,4′-bipiperidin]-1′-yl)(phenyl)methanone]
9.2 µM | > 50 µM | CCOC(=O)N1CCC(N2CCC(c3cc4c(-c5ccc(OC)c(OC)c5)c(C)n(C)c4cn3)CC2)CC1 [Example 20, ethyl 4-(3-(3,4-dimethoxyphenyl)-1,2-dimethyl-1H-pyrrolo[2,3-c]pyridin-5-yl)-[1,4′-bipiperidine]-1′-carboxylate]
26 µM | > 50 µM | COc1ccc(-c2c(C)[nH]c3cnc(C4CCN(C(=O)CN5CCCC5)CC4)cc23)cc1OC [Example 21, 1-(4-(3-(3,4-dimethoxyphenyl)-2-methyl-1H-pyrrolo[2,3-c]pyridin-5-yl)piperidin-1-yl)-2-(pyrrolidin-1-yl)ethan-1-one]
9.7 µM | > 50 µM | COc1ccc(-c2c(C)[nH]c3cnc(C4CCN(C(=O)CN(C)C)CC4)cc23)cc1OC [Example 22, 1-(4-(3-(3,4-dimethoxyphenyl)-2-methyl-1H-pyrrolo[2,3-c]pyridin-5-yl)piperidin-1-yl)-2-(dimethylamino)ethan-1-one]

Second part, the molecule before the results:

SMILES | IC50 [1] | IC50 [2]
COc1ccc(-c2[nH]c3cnc(-c4ccc(N5CCN(C(C)C)CC5)cc4)cc3c2C)cc1OC [Example 1, 2-(3,4-Dimethoxyphenyl)-5-(4-(4-isopropylpiperazin-1-yl)phenyl)-3-methyl-1H-pyrrolo[2,3-c]pyridine] | 1.7 µM | 21 µM
COc1ccc(-c2c(C)[nH]c3cnc(-c4ccc(N5CCN(C(C)C)CC5)cc4)cc23)cc1OC [Example 2, 3-(3,4-dimethoxyphenyl)-5-(4-(4-isopropylpiperazin-1-yl)phenyl)-2-methyl-1H-pyrrolo[2,3-c]pyridine] | 2.7 µM | 29 µM
COc1ccc(-c2c(C)n(C)c3cnc(-c4ccc(N5CCN(CC(C)(C)O)CC5)cc4)cc23)cc1OC [Example 3, 1-(4-(4-(3-(3,4-Dimethoxyphenyl)-1,2-dimethyl-1H-pyrrolo[2,3-c]pyridin-5-yl)phenyl)piperazin-1-yl)-2-methylpropan-2-ol] | 3.3 µM | 37.7 µM
COc1ccc(-c2c(C)[nH]c3cnc(C4CCN(C5CCN(C(=O)OCc6ccccc6)CC5)CC4)cc23)cc1OC [Example 4, Benzyl 4-(3-(3,4-dimethoxyphenyl)-2-methyl-1H-pyrrolo[2,3-c]pyridin-5-yl)-[1,4′-bipiperidine]-1′-carboxylate] | 9.5 µM | 23.5 µM
COc1ccc(-c2c(C)[nH]c3cnc(C4CCN(C(=O)C5CCN(C6CC6)CC5)CC4)cc23)cc1OC [Example 5, (1-Cyclopropylpiperidin-4-yl)(4-(3-(3,4-dimethoxyphenyl)-2-methyl-1H-pyrrolo[2,3-c]pyridin-5-yl)piperidin-1-yl)methanone] | 8.2 µM | > 50 µM
COc1ccc(-c2c(C)[nH]c3cnc(C4CCN(c5cc(C)nc(C)c5)CC4)cc23)cc1OC [Example 6, 3-(3,4-Dimethoxyphenyl)-5-(1-(2,6-dimethylpyridin-4-yl)piperidin-4-yl)-2-methyl-1H-pyrrolo[2,3-c]pyridine] | 8 µM | 23.3 µM
COc1ccc(-c2cc3cnc(-c4ccc(N5CCN(CC6CC6)CC5)cc4)cc3n2C)cc1OC [Example 9, 6-(4-(4-(Cyclopropylmethyl)piperazin-1-yl)phenyl)-2-(3,4-dimethoxyphenyl)-1-methyl-1H-pyrrolo[3,2-c]pyridine] | 2.9 µM | 1.5 µM
COc1ccc(-c2cc3cnc(-c4ccc(N5CCN(C6CCC6)CC5)cc4)cc3n2C)cc1OC [Example 10, 6-(4-(4-Cyclobutylpiperazin-1-yl)phenyl)-2-(3,4-dimethoxyphenyl)-1-methyl-1H-pyrrolo[3,2-c]pyridine] | 13.8 µM | 5.2 µM
COc1ccc(-c2c(C)c3cc(C4CCN(C5CCN(CC(C)C)CC5)CC4)ncc3n2C)cc1OC [Example 13, 2-(3,4-dimethoxyphenyl)-5-(1′-isobutyl-[1,4′-bipiperidin]-4-yl)-1,3-dimethyl-1H-pyrrolo[2,3-c]pyridine] | 17.3 µM | > 50 µM
COc1ccc(-c2c(C)[nH]c3cnc(C4CCN(C5CCN(C(=O)c6ccccc6)CC5)CC4)cc23)cc1OC [Example 14, (4-(3-(3,4-dimethoxyphenyl)-2-methyl-1H-pyrrolo[2,3-c]pyridin-5-yl)-[1,4′-bipiperidin]-1′-yl) (phenyl)methanone] | 8.2 µM | > 50 µM
COc1ccc(-c2c(C)[nH]c3cnc(C4CCN(C5CCN(C(=O)C(C)C)CC5)CC4)cc23)cc1OC [Example 15, 1-(4-(3-(3,4-dimethoxyphenyl)-2-methyl-1H-pyrrolo[2,3-c]pyridin-5-yl)-[1,4′-bipiperidin]-1′-yl)-2-methylpropan-1-one] | 14 µM | > 50 µM
